One series has as its system UV B radiation. As to the kind of experiment: biological light protection factor against UV B radiation, erythema score on skin of volunteers. In kind it is in vivo, human. Particulars: 5.0% (w/w) in petrolatum, light exposure for 16 and 32 seconds, two volunteers. The protocol: The biological light protection factor of the sunscreen formulation was determined at two concentrations of the active agent, P-PABA. The two formulations were prepared and tested at a concentration of 5.0% and 10% (w/w). For comparison, one control sunscreen agent was also studied. The UV B protection agent, ethylhexyl-4-dimethylaminobenzoic acid (EHD-PABA) was prepared at a concentration of 5.0% (w/w) in petrolatum. The test was performed on the skin of two volunteers, under standardized conditions by application of 0.1 ml of the formulation per 100 cm^2 of skin area on their backs.
An Osram Ultravitalux lamp was used as light source. The light protection factor was determined and compared to vehicle and untreated skin after light exposure on cylindrical (1.0 cm i.d.) skin areas for 16 and 32 seconds. The results were evaluated from intensity of the erythema score (FIG. 8; A) untreated control, b) 10% P-PABA, c) 5% P-PABA, D) vehicle, and E) EHD-PABA. Light exposure as indicated on each skin area for 16 seconds (left) and 32 seconds (right)). The biological protection against UV B radiation obtained by the UV B standard EHD-PABA absorber was almost similar to the protection by the polymeric P-PABA derivative.

The nature of series [1]: sunscreen index according to Kumler (UV absorbing characteristics). In kind it is physicochemical.

As for `CCCCC(CC)COC(=O)c1ccc(N(C)C)cc1` (stereo not shown) [EHD-PABA, ethylhexyl-4-dimethylaminobenzoic acid], the “protection against UV B radiation (erythema score)” value in the series on UV B radiation is given as “insufficient at 32 seconds in one of the volunteers”.
Consider `Nc1ccc(C(=O)O)cc1` [p-aminobenzoic acid (reference), p-aminobenzoic acid], for which the Sunscreen index in series [1] came to 7.4.
Regarding PE-N-aminobenzoic acid [P-PABA], the Sunscreen index in series [1] is listed as 6.2. Besides, the “protection against UV B radiation (erythema score)” value in the series on UV B radiation is “complete”.

The record behind these values is US6562802B2, “Medical composition and uses thereof” (Noviscens AB, priority 1996, dated 2003).
